Assays:
Format in all cases: cell-based
[1] = test system: human hepatocytes maintained in micropatterned co-culture with 3T3-J2 murine embryonic fibroblasts; experiment: Glycogen synthesis in MPCC, PAS stain of intracellular glycogen; settings: glycogen-depleted, 5 mM glucose + 100 nm hormone, 24 hours after treatment; FIG. 11B
Experimental: (§1) Glycogen lysis and glycogen synthesis in MPCC hepatocytes was also studied. The rate of glycogen lysis in MPCCs was measured by incubating cultures with glucose-free/hormone-free medium for 48 hours (fasting), followed by fixation of cultures using 4% paraformaldehyde and staining of intracellular glycogen (periodic acid Schiff stain (“PAS stain”)). The rate of glycogen synthesis was measured by first depleting glycogen stores as described above, followed by addition of glucose to medium (feeding) and staining of glycogen at specific time-points. Results at 24 hours are shown in FIGS. 11A-B. FIG. 11A is a panel of four photomicrographs of human hepatocytes maintained in micropatterned co-culture with 3T3-J2 murine embryonic fibroblasts, indicating glycogenolysis in the cells under four conditions: 25 mM glucose, glucose free, glucose free+100 nm glucagon, and glucose free+100 nm insulin, 24 hrs after treatment. […] MPCCs were cultured in glucose free media for 2 days and depleted of all glycogen prior to the addition of 5 mM glucose. […]

[2] = test system: human hepatocytes maintained in micropatterned co-culture with 3T3-J2 murine embryonic fibroblasts; experiment: Glycogen lysis in MPCC, PAS stain of intracellular glycogen; settings: glucose free medium + 100 nm hormone, 24 hrs after treatment; FIG. 11A
Experimental: as §1

[3] = test system: human hepatocytes maintained in micropatterned co-culture with 3T3-J2 murine embryonic fibroblasts; experiment: Gluconeogenesis (glucose production) in glycogen-depleted MPCC; settings: at 24 hours, following a varying dose of metformin; FIG. 9B
Experimental: To test for gluconeogenesis in diabetic hepatocytes in co-culture, the MPCC hepatocyte cultures comprising diabetic versus non-diabetic cells were subjected to glucose-free medium for 24-48 hours, thereby depleting the resident glycogen stores so that cells were only able to perform gluconeogenesis in the presence of the glucose precursors lactate and pyruvate. Gluconeogenesis rate was measured by incubating glycogen-depleted cultures with the substrates pyruvate and lactate, in glucose-free medium and glucose measurement in medium (Amplex Red) at 24 hours, thereby isolating the contribution of gluconeogenesis to glucose production, from potential residual glucose output due to glycogen depletion.
Cells were also tested under the glycogen depletion conditions as described above, for the effect of hormones on glucose production. The MPCCs were subjected to glycogen depletion for 12 hours, followed by stimulation of gluconeogenesis using lactate or pyruvate, in the presence or absence of insulin, glucagon or dexamethasone. Released glucose was measured 24 hours later.

| Compound | glycogen synthesis (intracellular glycogen, PAS stain) [1] | glycogenolysis (intracellular glycogen, PAS stain) [2] | glucose production (gluconeogenesis) [3] |
| --- | --- | --- | --- |
| glucagon | did not synthesize glycogen | at a higher rate when stimulated by glucagon | – |
| CN(C)C(=N)N=C(N)N [metformin] | – | – | dose-dependent blockage |
| insulin | at a higher rate when stimulated by insulin | continued storing glycogen | – |
